Data from ChEMBL document CHEMBL4346735, “Discovery and pharmacological evaluation of indole derivatives as potent and selective RORγt inverse agonist for multiple autoimmune conditions” (Bioorg Med Chem Lett, 2019).

How the values were obtained:
[1] = Metabolic stability in mouse liver microsomes assessed as parent compound remaining at 1 uM preincubated for 5 mins followed by NADPH addition after 30 mins by LC-MS/MS analysis; format: ADME, Microsome; conditions: read-out: Stability
[2] = AUC in mouse brain at 10 mg/kg, po; format: ADME, organism-based
[3] = system: Mus musculus; experiment: (§1) Immunosuppressive activity in MOG (35 to 55 residues)/pertussis toxin-induced experimental allergic encephalomyelitis C57BL/6J mouse model assessed as reduction in GM-CSF gene expression in spinal cord at 30 mg/kg, po bid measured at day 23 post MOG immunization/pertusis immunization relative to control; format: functional; conditions: 552 h
[4] = Metabolic stability in simulated gastric fluid assessed as compound remaining after 45 mins; format: ADME; conditions: read-out: Stability
[5] = system: Mus musculus; experiment: as §1, with “CCR6” for “GM-CSF”; format: functional; conditions: 552 h
[6] = system: Mus musculus; experiment: Immunosuppressive activity in MOG (35 to 55 residues)/pertussis toxin-induced experimental allergic encephalomyelitis C57BL/6J mouse model assessed as reduction in disease severity score at 30 mg/kg, po bid measured at day 21 relative to dexamethasone; format: functional; conditions: 504 h
[7] = Cmax in mouse at 10 mg/kg, po; format: ADME, organism-based; parameters: dose 10 mg/kg, route oral; conditions: in vivo
[8] = Metabolic stability in simulated gastric fluid assessed as compound remaining after 15 mins; format: ADME; conditions: read-out: Stability
[9] = Half life in mouse at 3 mg/kg, iv; format: ADME, organism-based; conditions: in vivo
[10] = system: Mus musculus; experiment: Inhibition of anti-CD3-induced IL-17A level in Balb/c mouse plasma at 30 mg/kg, po treated prior to stimulation with anti-CD3 for 3 hrs relative to control; format: functional
[11] = Metabolic stability in simulated intestinal fluid assessed as compound remaining after 15 mins; format: ADME; conditions: read-out: Stability
[12] = system: Mus musculus; experiment: as §1, with “IL-22” for “GM-CSF”; format: functional; conditions: 552 h
[13] = system: Mus musculus; experiment: as §1, with “IL-17A” for “GM-CSF”, “19” for “23”; format: functional; conditions: 456 h
[14] = Metabolic stability in simulated gastric fluid assessed as compound remaining after 60 mins; format: ADME; conditions: read-out: Stability
[15] = Metabolic stability in simulated intestinal fluid assessed as compound remaining after 60 mins; format: ADME; conditions: read-out: Stability
[16] = system: Mus musculus; experiment: Immunosuppressive activity in MOG (35 to 55 residues)/pertussis toxin-induced experimental allergic encephalomyelitis C57BL/6J mouse model assessed as reduction in disease severity score at 10 mg/kg, po bid measured at day 23 relative to dexamethasone; format: functional; conditions: 552 h
[17] = Metabolic stability in rat hepatocytes assessed as parent compound remaining after 60 mins; format: ADME, cell-based, Hepatocyte; conditions: read-out: Stability
[18] = system: Mus musculus; experiment: as §1, with “IL-22” for “GM-CSF”, “19” for “23”; format: functional; conditions: 456 h
[19] = Tmax in mouse at 10 mg/kg, po; format: ADME, organism-based; conditions: in vivo
[20] = Metabolic stability in simulated gastric fluid assessed as compound remaining after 30 mins; format: ADME; conditions: read-out: Stability
[21] = system: Splenocyte; experiment: Cytotoxicity against mouse splenocytes assessed as cell viability incubated for 6 days in presence of anti-CD4/anti-IFNgamma/TGFbeta/IL-6; format: cell-based; conditions: 144 h
[22] = Oral bioavailability in mouse at 10 mg/kg; format: ADME, organism-based; conditions: in vivo
[23] = target: T1, Nuclear receptor ROR-gamma (Mus musculus, UniProt P51450); experiment: Inverse agonist activity at RORgammat in mouse splenocytes derived naive T cells assessed as suppression of T cell differentiation to Th17 cells by measuring IL-17 secretion in presence of […]/anti-IFNgamma/TGFbeta/IL-6 for 6 days by ELISA; format: cell-based
T1 sequence (P51450 whole entry): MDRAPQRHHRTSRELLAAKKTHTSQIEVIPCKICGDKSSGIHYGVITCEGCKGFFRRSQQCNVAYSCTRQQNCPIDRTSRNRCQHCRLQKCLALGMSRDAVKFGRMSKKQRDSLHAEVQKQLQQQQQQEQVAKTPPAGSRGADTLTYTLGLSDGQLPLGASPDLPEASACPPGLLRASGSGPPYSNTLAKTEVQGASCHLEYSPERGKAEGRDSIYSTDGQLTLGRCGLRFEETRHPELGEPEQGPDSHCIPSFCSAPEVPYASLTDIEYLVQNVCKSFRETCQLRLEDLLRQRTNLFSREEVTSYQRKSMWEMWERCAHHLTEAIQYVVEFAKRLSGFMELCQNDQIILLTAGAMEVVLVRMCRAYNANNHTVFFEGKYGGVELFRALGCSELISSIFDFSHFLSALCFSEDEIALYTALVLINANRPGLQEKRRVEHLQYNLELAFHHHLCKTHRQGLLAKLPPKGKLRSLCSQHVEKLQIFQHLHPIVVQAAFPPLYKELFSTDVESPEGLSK

[24] = system: HepG2; experiment: Cytotoxicity against human HepG2 cells
[25] = Metabolic stability in dog hepatocytes assessed as parent compound remaining after 60 mins; format: ADME, cell-based, Canis lupus familiaris, Hepatocyte; conditions: read-out: Stability
[26] = Plasma protein binding in mouse; format: ADME; conditions: read-out: PPB (converted)
[27] = Cytotoxicity against Balb/c mouse splenocytes assessed as cell viability in presence of anti-CD3/anti-CD28 measured after 24 hrs; format: cell-based, Splenocyte; conditions: read-out: Activity
[28] = Clearance in mouse at 3 mg/kg, iv; format: ADME, organism-based; conditions: in vivo
[29] = system: Mus musculus; experiment: Immunosuppressive activity in MOG (35 to 55 residues)/pertussis toxin-induced experimental allergic encephalomyelitis C57BL/6J mouse model assessed as reduction in disease severity score at 3 mg/kg, po bid measured at day 23 relative to dexamethasone; format: functional; conditions: 552 h
[30] = Metabolic stability in simulated intestinal fluid assessed as compound remaining after 3 hrs; format: ADME; conditions: read-out: Stability
[31] = Metabolic stability in simulated intestinal fluid assessed as compound remaining after 30 mins; format: ADME; conditions: read-out: Stability
[32] = Metabolic stability in human hepatocytes assessed as parent compound remaining after 60 mins; format: ADME, cell-based, Hepatocyte; conditions: read-out: Stability
[33] = AUC (0 to 24 hrs) in mouse at 10 mg/kg, po; format: ADME, organism-based; parameters: dose 10 mg/kg, time < 24 hr, route oral; conditions: in vivo
[34] = AUC in mouse liver at 10 mg/kg, po; format: ADME, organism-based
[35] = Metabolic stability in rat liver microsomes assessed as parent compound remaining at 1 uM preincubated for 5 mins followed by NADPH addition after 30 mins by LC-MS/MS analysis; format: ADME, Microsome; conditions: read-out: Stability
[36] = system: Mus musculus; experiment: Inhibition of anti-CD3-induced IL-17A level in Balb/c mouse plasma at 10 mg/kg, po treated prior to stimulation with anti-CD3 for 3 hrs relative to control; format: functional
[37] = system: Mus musculus; experiment: as §1, with “IL-17A” for “GM-CSF”; format: functional; conditions: 552 h
[38] = system: Mus musculus; experiment: as §1, with “CCR6” for “GM-CSF”, “19” for “23”; format: functional; conditions: 456 h
[39] = system: Mus musculus; experiment: Immunosuppressive activity in MOG (35 to 55 residues)/pertussis toxin-induced experimental allergic encephalomyelitis C57BL/6J mouse model assessed as reduction in disease severity score at 30 mg/kg, po bid measured at day 23 relative to dexamethasone; format: functional; conditions: 552 h

Question: Which remaining at 0.5 h, 1 µM [1] does the source give for `O=C(O)c1ccc(-n2cc(C(=O)c3c(Cl)cccc3Cl)c3cccc(F)c32)cc1` here?
Answer: 78%

Question: And the AUC [2]?
Answer: 0.29 µM·h

Question: What about the inhibition in vivo at 30 mg/kg [3] of the same molecule?
Answer: 70%

Question: What about the remaining at 0.75 h [4] of the same molecule?
Answer: 93%

Question: And the inhibition in vivo at 30 mg/kg [5]?
Answer: 36%

Question: And the inhibition in vivo at 30 mg/kg [6]?
Answer: 26%

Question: And the Cmax [7]?
Answer: 6.2 µM

Question: What about the remaining at […] [8] of the same molecule?
Answer: 84%

Question: And the half-life [9]?
Answer: 2.4 h

Question: What about the inhibition in vivo at 30 mg/kg [10] of the same molecule?
Answer: 33%

Question: And the remaining at […] [11]?
Answer: 100%

Question: What about the inhibition in vivo at 30 mg/kg [12] of the same molecule?
Answer: 24%

Question: And the inhibition in vivo at 30 mg/kg [13]?
Answer: 30%

Question: And the remaining at 1 h [14]?
Answer: 93%

Question: And the remaining at 1 h [15]?
Answer: 100%

Question: And the inhibition in vivo at 10 mg/kg [16]?
Answer: 31%

Question: What about the remaining at 1 h [17] of the same molecule?
Answer: 57%

Question: And the inhibition in vivo at 30 mg/kg [18]?
Answer: 36%

Question: And the Tmax [19]?
Answer: 0.5 h

Question: What about the remaining at 0.5 h [20] of the same molecule?
Answer: 90%

Question: What about the Activity [21] of the same molecule?
Answer: Non-Toxic

Question: And the bioavailability [22]?
Answer: 72%

Question: What about the IC50 [23] of the same molecule?
Answer: 26 nM

Question: And the IC50 [24]?
Answer: > 50000 nM

Question: And the remaining at 1 h [25]?
Answer: 51%

Question: And the fraction unbound [26]?
Answer: 0.02

Question: And the viability at 24 h [27]?
Answer: > 95%

Question: And the clearance [28]?
Answer: 23.4 mL/min/kg

Question: What about the inhibition in vivo at 3 mg/kg [29] of the same molecule?
Answer: 25%

Question: And the remaining at 3 h [30]?
Answer: 100%

Question: What about the remaining at 0.5 h [31] of the same molecule?
Answer: 100%

Question: What about the remaining at 1 h [32] of the same molecule?
Answer: 59%

Question: And the AUC(0-t) at 24 h [33]?
Answer: 10.4 µM·h

Question: What about the AUC [34] of the same molecule?
Answer: 400 µM·h

Question: What about the remaining at 0.5 h, 1 µM [35] of the same molecule?
Answer: 100%

Question: What about the inhibition in vivo at 10 mg/kg [36] of the same molecule?
Answer: 17%

Question: What about the inhibition in vivo at 30 mg/kg [37] of the same molecule?
Answer: 43%

Question: And the inhibition in vivo at 30 mg/kg [38]?
Answer: 60%

Question: And the inhibition in vivo at 30 mg/kg [39]?
Answer: 39%
